Laboratory results reported in US12677832B2, “Oxadiazole compounds for controlling or preventing phytopathogenic fungi” (PI INDUSTRIES LTD., priority 2019, dated 2026).

Tested on: Phakopsora pachyrhizi
Experiment: Phakopsora pachyrhizi Test in Soybean (preventive spray)
Type: in vivo
Details: preventive spray on Soybean plants, inoculated one day after treatment, disease severity vs untreated control
Procedure: Example 7: Phakopsora pachyrhizi Test in Soybean Compounds were dissolved in 2% dimethyl sulfoxide/acetone and then mixed with water containing an emulsifier to a calibrated spray volume of 50 mL. This 50 mL spray solution was poured into spray bottles for further applications. To test the preventive activity of compounds, healthy young Soybean plants, raised in the greenhouse, were sprayed with the active compound preparation at the stated application rates inside the spray cabinets using hollow cone nozzles. One day after treatment, the plants were inoculated with a spore suspension containing 2×10^5Phakopsora pachyrhizi conidia. The inoculated plants were then kept in a greenhouse chamber at 22-24° C. temperature and 80-90% relative humidity for disease expression. A visual assessment of the compound's performance was carried out by rating the disease severity (0-100% scale) on treated plants 3, 7, 10 and 15 days after application. Efficacy (% control) of the compounds was calculated by comparing the disease rating in the treatment with the one of the untreated control. The sprayed plants were also assessed for plant compatibility by recording symptoms like necrosis, chlorosis and stunting.

Compound	pest or weed control at 500 ppm [%]
COc1ccc(OCC(=O)c2ccc(-c3noc(C(F)(F)F)n3)cc2)cc1 [Compound 2, 2-(4-methoxyphenoxy)-1-(4-(5-(trifluoromethyl)-1,2,4-oxadiazol-3-yl)phenyl)ethan-1-one]	≥ 70
O=C(CSc1c(Cl)cccc1Cl)c1ccc(-c2noc(C(F)(F)F)n2)cc1 [Compound 13, 2-((2,6-dichlorophenyl)thio)-1-(4-(5-(trifluoromethyl)-1,2,4-oxadiazol-3-yl)phenyl)ethan-1-one]	≥ 70
O=C(COc1ccccc1F)c1ccc(-c2noc(C(F)(F)F)n2)cc1 [Compound 1, 2-(2-fluorophenoxy)-1-(4-(5-(trifluoromethyl)-1,2,4-oxadiazol-3-yl)phenyl)ethan-1-one]	≥ 70
O=C(COc1ccc(C(F)(F)F)cc1)c1ccc(-c2noc(C(F)(F)F)n2)cc1 [Compound 36, 1-(4-(5-(trifluoromethyl)-1,2,4-oxadiazol-3-yl)phenyl)-2-(4-(trifluoromethyl)phenoxy)ethan-1-one]	≥ 70
Cc1ccc(SCC(=O)c2ccc(-c3noc(C(F)(F)F)n3)cc2)cc1 [Compound 22, 2-(p-tolylthio)-1-(4-(5-(trifluoromethyl)-1,2,4-oxadiazol-3-yl)phenyl)ethan-1-one]	≥ 70
Cc1ccc(C)c(OCC(=O)c2ccc(-c3noc(C(F)(F)F)n3)cc2)c1 [Compound 16, 2-(2,5-dimethylphenoxy)-1-(4-(5-(trifluoromethyl)-1,2,4-oxadiazol-3-yl)phenyl)ethan-1-one]	≥ 70
Cc1cccc(SCC(=O)c2ccc(-c3noc(C(F)(F)F)n3)cc2)c1 [Compound 67, 2-(m-tolylthio)-1-(4-(5-(trifluoromethyl)-1,2,4-oxadiazol-3-yl)phenyl)ethan-1-one]	≥ 70
COc1cccc(SCC(=O)c2ccc(-c3noc(C(F)(F)F)n3)cc2)c1 [Compound 14, 2-((3-methoxyphenyl)thio)-1-(4-(5-(trifluoromethyl)-1,2,4-oxadiazol-3-yl)phenyl)ethan-1-one]	≥ 70
O=C(CSc1nc2ccccc2o1)c1ccc(-c2noc(C(F)(F)F)n2)cc1 [Compound 25, 2-(benzo[d]oxazol-2-ylthio)-1-(4-(5-(trifluoromethyl)-1,2,4-oxadiazol-3-yl)phenyl)ethan-1-one]	≥ 70
O=C(COc1ccc(F)cc1)c1ccc(-c2noc(C(F)(F)F)n2)cc1 [Compound 4, 2-(4-fluorophenoxy)-1-(4-(5-(trifluoromethyl)-1,2,4-oxadiazol-3-yl)phenyl)ethan-1-one]	≥ 70
O=C(COc1cccc(C(F)(F)F)c1)c1ccc(-c2noc(C(F)(F)F)n2)cc1 [Compound 40, 1-(4-(5-(trifluoromethyl)-1,2,4-oxadiazol-3-yl)phenyl)-2-(3-(trifluoromethyl)phenoxy)ethan-1-one]	≥ 70
Cc1ccc(C(F)(F)F)c(OCC(=O)c2ccc(-c3noc(C(F)(F)F)n3)cc2)n1 [Compound 45, 2-((6-methyl-3-(trifluoromethyl)pyridin-2-yl)oxy)-1-(4-(5-(trifluoromethyl)-1,2,4-oxadiazol-3-yl)phenyl)ethan-1-one]	≥ 70
Cc1ccc([S+]([O-])CC(=O)c2ccc(-c3noc(C(F)(F)F)n3)cc2)cc1 (centres unmarked) [Compound 86, 2-(p-tolylsulfinyl)-1-(4-(5-(trifluoromethyl)-1,2,4-oxadiazol-3-yl)phenyl)ethan-1-one]	≥ 70
O=C(CS(=O)(=O)c1ccc(Cl)c(Cl)c1)c1ccc(-c2noc(C(F)(F)F)n2)cc1 [Compound 94, 2-((3,4-dichlorophenyl)sulfonyl)-1-(4-(5-(trifluoromethyl)-1,2,4-oxadiazol-3-yl)phenyl)ethan-1-one]	≥ 70
O=C(COc1ccc(F)cc1Cl)c1ccc(-c2noc(C(F)(F)F)n2)cc1 [Compound 19, 2-(2-chloro-4-fluorophenoxy)-1-(4-(5-(trifluoromethyl)-1,2,4-oxadiazol-3-yl)phenyl)ethan-1-one]	≥ 70
O=C(CSC1CCCC1)c1ccc(-c2noc(C(F)(F)F)n2)cc1 [Compound 24, 2-(cyclopentylthio)-1-(4-(5-(trifluoromethyl)-1,2,4-oxadiazol-3-yl)phenyl)ethan-1-one]	≥ 70
CC(SCC(=O)c1ccc(-c2noc(C(F)(F)F)n2)cc1)c1ccccc1 (centres unmarked) [Compound 58, 2-((1-phenylethyl)thio)-1-(4-(5-(trifluoromethyl)-1,2,4-oxadiazol-3-yl)phenyl)ethan-1-one]	≥ 70
O=C(C[S+]([O-])c1ccccc1F)c1ccc(-c2noc(C(F)(F)F)n2)cc1 (centres unmarked) [Compound 88, 2-((2-fluorophenyl)sulfinyl)-1-(4-(5-(trifluoromethyl)-1,2,4-oxadiazol-3-yl)phenyl)ethan-1-one]	≥ 70

Compound	pest or weed control at 500 ppm [%]
Cc1ccc(Cl)c(OCC(=O)c2ccc(-c3noc(C(F)(F)F)n3)cc2)c1 [Compound 33, 2-(2-chloro-5-methylphenoxy)-1-(4-(5-(trifluoromethyl)-1,2,4-oxadiazol-3-yl)phenyl)ethan-1-one]	≥ 70
COc1ccc(CSCC(=O)c2ccc(-c3noc(C(F)(F)F)n3)cc2)cc1 [Compound 57, 2-((4-methoxybenzyl)thio)-1-(4-(5-(trifluoromethyl)-1,2,4-oxadiazol-3-yl)phenyl)ethan-1-one]	≥ 70
Cc1cc(F)cc(OCC(=O)c2ccc(-c3noc(C(F)(F)F)n3)cc2)c1 [Compound 41, 2-(3-fluoro-5-methylphenoxy)-1-(4-(5-(trifluoromethyl)-1,2,4-oxadiazol-3-yl)phenyl)ethan-1-one]	≥ 70
O=C(C[S+]([O-])c1ccc(Cl)cc1)c1ccc(-c2noc(C(F)(F)F)n2)cc1 (centres unmarked) [Compound 78, 2-((4-chlorophenyl)sulfinyl)-1-(4-(5-(trifluoromethyl)-1,2,4-oxadiazol-3-yl)phenyl)ethan-1-one]	≥ 70
O=C(CNc1ccc(C(F)(F)F)cc1)c1ccc(-c2noc(C(F)(F)F)n2)cc1 [Compound 28, 1-(4-(5-(trifluoromethyl)-1,2,4-oxadiazol-3-yl)phenyl)-2-((4-(trifluoromethyl)phenyl)amino)ethan-1-one]	≥ 70
O=C(COc1ccc(Br)c(F)c1)c1ccc(-c2noc(C(F)(F)F)n2)cc1 [Compound 12, 2-(4-bromo-3-fluorophenoxy)-1-(4-(5-(trifluoromethyl)-1,2,4-oxadiazol-3-yl)phenyl)ethan-1-one]	≥ 70
COc1ccc(SCC(=O)c2ccc(-c3noc(C(F)(F)F)n3)cc2)cc1 [Compound 23, 2-((4-methoxyphenyl)thio)-1-(4-(5-(trifluoromethyl)-1,2,4-oxadiazol-3-yl)phenyl)ethan-1-one]	≥ 70
O=C(COc1ccc(Cl)cc1Cl)c1ccc(-c2noc(C(F)(F)F)n2)cc1 [Compound 20, 2-(2,4-dichlorophenoxy)-1-(4-(5-(trifluoromethyl)-1,2,4-oxadiazol-3-yl)phenyl)ethan-1-one]	≥ 70
O=C(COc1ccc(Cl)c(C(F)(F)F)c1)c1ccc(-c2noc(C(F)(F)F)n2)cc1 [Compound 9, 2-(4-chloro-3-(trifluoromethyl)phenoxy)-1-(4-(5-(trifluoromethyl)-1,2,4-oxadiazol-3-yl)phenyl)ethan-1-one]	≥ 70
O=C(CS(=O)(=O)c1ccc(Cl)cc1)c1ccc(-c2noc(C(F)(F)F)n2)cc1 [Compound 95, 2-((4-chlorophenyl)sulfonyl)-1-(4-(5-(trifluoromethyl)-1,2,4-oxadiazol-3-yl)phenyl)ethan-1-one]	≥ 70
O=C(C[S+]([O-])c1cccc(F)c1)c1ccc(-c2noc(C(F)(F)F)n2)cc1 (centres unmarked) [Compound 87, 2-((3-fluorophenyl)sulfinyl)-1-(4-(5-(trifluoromethyl)-1,2,4-oxadiazol-3-yl)phenyl)ethan-1-one]	≥ 70
O=C(CSc1ccc(Cl)cc1)c1ccc(-c2noc(C(F)(F)F)n2)cc1 [Compound 53, 2-((4-chlorophenyl)thio)-1-(4-(5-(trifluoromethyl)-1,2,4-oxadiazol-3-yl)phenyl)ethan-1-one]	≥ 70
Cc1ccc(OCC(=O)c2ccc(-c3noc(C(F)(F)F)n3)cc2)cc1 [Compound 34, 2-(p-tolyloxy)-1-(4-(5-(trifluoromethyl)-1,2,4-oxadiazol-3-yl)phenyl)ethan-1-one]	≥ 70
O=C(CSc1ccccc1)c1ccc(-c2noc(C(F)(F)F)n2)cc1 [Compound 60, 2-(phenylthio)-1-(4-(5-(trifluoromethyl)-1,2,4-oxadiazol-3-yl)phenyl)ethan-1-one]	≥ 70
O=C(CSc1ccc(Cl)c(Cl)c1)c1ccc(-c2noc(C(F)(F)F)n2)cc1 [Compound 52, 2-((3,4-dichlorophenyl)thio)-1-(4-(5-(trifluoromethyl)-1,2,4-oxadiazol-3-yl)phenyl)ethan-1-one]	≥ 70
Cc1cccc(OCC(=O)c2ccc(-c3noc(C(F)(F)F)n3)cc2)c1 [Compound 10, 2-(m-tolyloxy)-1-(4-(5-(trifluoromethyl)-1,2,4-oxadiazol-3-yl)phenyl)ethan-1-one]	≥ 70
O=C(CSc1cccc(F)c1)c1ccc(-c2noc(C(F)(F)F)n2)cc1 [Compound 64, 2-((3-fluorophenyl)thio)-1-(4-(5-(trifluoromethyl)-1,2,4-oxadiazol-3-yl)phenyl)ethan-1-one]	≥ 70
